In patent US20100035929A1, “UNNATURAL DISPYRIN ANALOGUES, PREPARATION AND USES THEREOF” (priority 2008, published 2010):
Like-named read-outs stand apart in the source and are kept apart here.

How the values were obtained:
human H3 receptor [1] = molecular target: T1, human H3 receptor (Homo sapiens, UniProt Q9Y5N1); assay: H3 affinity, radioligand binding assay employing [3H](R)-α-methylhistamine
Excerpt: (§1) In one aspect, H3 affinity (Ki) and inhibition (IC50) can be determined in 5-point concentration response curves. Using data obtained from such methods, SAR can be established.

human H3 receptor [2] = molecular target: T1, human H3 receptor; assay: H3 antagonist activity / inhibition (IC50); type: biochemical
Excerpt: as §1

[3] = test system: calcium and potassium ion channels, including hERG; assay: MDS Pharma Services radioligand binding panel, initial screen at single 10 μM concentration: ion channels; settings: human, read-out: inhibition of a number of calcium and potassium ion channels, including hERG
Description: (§2) Multiple screening avenues were pursued to identify the biological activity of dispyrin. Dispyrin was submitted to the screening deck of the Molecular Library Screening Network (MLSCN) and was evaluated against several GPCR targets (M1, M4, D1/D5, mGluR5, mGluR4) in agonist, antagonist and potentiator mode. Utilizing panels of radioligand binding assays from several companies, dispyrin was evaluated against >200 discrete molecular targets over the course of two months. The MDS Pharma Services panel identified multiple activities for dispyrin. […] Other modest activities at the 50-60% range at 10 u.M included other GPCRs and ion channels, but none with significant activity (no Kis or IC50s<10 μM).

[4] = test system: other GPCRs and ion channels; assay: MDS Pharma Services radioligand binding panel, initial screen at single 10 μM concentration: other targets; settings: at 10 μM; none with significant activity (no Kis or IC50s<10 μM)
Description: as §2

[5] = 5-point concentration response curves, read-out: H3 Ki
[6] = 5-point concentration response curves, read-out: H3 IC50

T1 sequence (Q9Y5N1 whole entry): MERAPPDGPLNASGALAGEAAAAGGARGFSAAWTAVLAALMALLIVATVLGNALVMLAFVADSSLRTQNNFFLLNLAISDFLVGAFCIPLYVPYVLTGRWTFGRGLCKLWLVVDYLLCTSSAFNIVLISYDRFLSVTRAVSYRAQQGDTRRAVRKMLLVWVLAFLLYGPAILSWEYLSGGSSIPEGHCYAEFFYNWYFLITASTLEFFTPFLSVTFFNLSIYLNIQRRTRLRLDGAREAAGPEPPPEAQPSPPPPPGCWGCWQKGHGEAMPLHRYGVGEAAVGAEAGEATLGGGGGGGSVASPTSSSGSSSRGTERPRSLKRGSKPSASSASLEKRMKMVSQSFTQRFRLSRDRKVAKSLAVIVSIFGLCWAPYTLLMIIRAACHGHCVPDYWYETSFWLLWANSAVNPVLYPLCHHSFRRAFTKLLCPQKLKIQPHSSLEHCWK

O=C(NCCc1ccc(OCCN2CC[C@@H](F)C2)c(Br)c1)c1cc(Br)cs1
Ki (human H3 receptor [1]; [5]): 1100 nM
IC50 (human H3 receptor [2]; [6]): 2100 nM

O=C(NCCc1ccc(OCCN2CCCC2)c(Br)c1)c1cccc(Br)c1 [3-bromo-N-(3-bromo-4-(2-(pyrrolidin-1-yl)ethoxy)phenethyl)benzamide]
Ki (human H3 receptor [1]; [5]): 210 nM
IC50 (human H3 receptor [2]; [6]): 450 nM

CN(C)CCOc1ccc(CCNC(=O)c2cc(Br)c[nH]2)cc1Br [4-bromo-N-(3-bromo-4-(2-(dimethylamino)ethoxy)phenethyl)-1H-pyrrole-2-carboxamide]
Ki (human H3 receptor [1]; [5]): 1600 nM
IC50 (human H3 receptor [2]; [6]): 3700 nM

CN(C)CCOc1ccc(CCNC(=O)c2cc(Br)cs2)cc1Br [4-bromo-N-(3-bromo-4-(2-(dimethylamino)ethoxy)phenethyl)thiophene-2-carboxamide]
Ki (human H3 receptor [1]; [5]): 670 nM
IC50 (human H3 receptor [2]; [6]): 1500 nM

O=C(NCCc1ccc(OCCN2CCCC2)c(Br)c1)c1cc(Br)c[nH]1 [4-bromo-N-(3-bromo-4-(2-(pyrrolidin-1-yl)ethoxy)phenethyl)-1H-pyrrole-2-carboxamide]
Ki (human H3 receptor [1]; [5]): 190 nM
IC50 (human H3 receptor [2]; [6]): 430 nM

O=C(NCCc1ccc(OCCN2CCCC2)c(Br)c1)c1cc(Br)cs1 [4-bromo-N-(3-bromo-4-(2-(pyrrolidin-1-yl)ethoxy)phenethyl)thiophene-2-carboxamide]
Ki (human H3 receptor [1]; [5]): 80 nM
IC50 (human H3 receptor [2]; [6]): 180 nM

CN(C)CCCOc1ccc(CCNC(=O)c2cc(Br)cs2)cc1Br [4-bromo-N-(3-bromo-4-(3-(dimethylamino)propoxy)phenethyl)thiophene-2-carboxamide]
Ki (human H3 receptor [1]; [5]): 1600 nM
IC50 (human H3 receptor [2]; [6]): 3600 nM

CN1CCCC(COc2ccc(CCNC(=O)c3cc(Br)c[nH]3)cc2Br)C1 (stereo not shown) [4-bromo-N-(3-bromo-4-((1-methylpiperidin-3-yl)methoxy)phenethyl)-1H-pyrrole-2-carboxamide]
Ki (human H3 receptor [1]; [5]): 1300 nM
IC50 (human H3 receptor [2]; [6]): 2900 nM

CN1CCCC(COc2ccc(CCNC(=O)c3cc(Br)cs3)cc2Br)C1 (stereo not shown) [4-bromo-N-(3-bromo-4-((1-methylpiperidin-3-yl)methoxy)phenethyl)thiophene-2-carboxamide]
Ki (human H3 receptor [1]; [5]): 1200 nM
IC50 (human H3 receptor [2]; [6]): 1700 nM

O=C(NCc1ccc(OCCN2CCCC2)c(Cl)c1)c1cc(Br)cs1 [4-bromo-N-(3-chloro-4-(2-(pyrrolidin-1-yl)ethoxy)benzyl)thiophene-2-carboxamide]
Ki (human H3 receptor [1]; [5]): 1100 nM
IC50 (human H3 receptor [2]; [6]): 2400 nM

O=C(NCCc1ccc(OCCN2CCCC2)c(Cl)c1)c1cc(Br)cs1 [4-bromo-N-(3-chloro-4-(2-(pyrrolidin-1-yl)ethoxy)phenethyl)thiophene-2-carboxamide]
Ki (human H3 receptor [1]; [5]): 160 nM
IC50 (human H3 receptor [2]; [6]): 350 nM

CN(C)CCOc1ccc(CCNC(=O)c2ccc(Br)o2)cc1Br [5-bromo-N-(3-bromo-4-(2-(dimethylamino)ethoxy)phenethyl)furan-2-carboxamide]
Ki (human H3 receptor [1]; [5]): 2700 nM
IC50 (human H3 receptor [2]; [6]): 5900 nM

O=C(NCCc1ccc(OCCN2CCCC2)c(Br)c1)c1ccc(Br)o1 [5-bromo-N-(3-bromo-4-(2-(pyrrolidin-1-yl)ethoxy)phenethyl)furan-2-carboxamide]
Ki (human H3 receptor [1]; [5]): 170 nM
IC50 (human H3 receptor [2]; [6]): 390 nM

CN(C)CCCOc1ccc(CCNC(=O)c2ccc(Br)o2)cc1Br [5-bromo-N-(3-bromo-4-(3-(dimethylamino)propoxy)phenethyl)furan-2-carboxamide]
Ki (human H3 receptor [1]; [5]): 2200 nM
IC50 (human H3 receptor [2]; [6]): 4800 nM

CN1CCCC(COc2ccc(CCNC(=O)c3ccc(Br)o3)cc2Br)C1 (stereo not shown) [5-bromo-N-(3-bromo-4-((1-methylpiperidin-3-yl)methoxy)phenethyl)furan-2-carboxamide]
Ki (human H3 receptor [1]; [5]): 2100 nM
IC50 (human H3 receptor [2]; [6]): 4500 nM

C[C@@H]1CCCN1CCOc1ccc(CCNC(=O)c2cc(Br)cs2)cc1Br [(R)-4-bromo-N-(3-bromo-4-(2-(2-methylpyrrolidin-1-yl)ethoxy)phenethyl)thiophene-2-carboxamide]
Ki (human H3 receptor [1]; [5]): 310 nM
IC50 (human H3 receptor [2]; [6]): 710 nM

C[C@H]1CCCN1CCOc1ccc(CCNC(=O)c2cc(Br)cs2)cc1Br [(S)-4-bromo-N-(3-bromo-4-(2-(2-methylpyrrolidin-1-yl)ethoxy)phenethyl)thiophene-2-carboxamide]
Ki (human H3 receptor [1]; [5]): 330 nM
IC50 (human H3 receptor [2]; [6]): 750 nM

O=C(NCCc1ccc(OCCN2CC[C@H](F)C2)c(Br)c1)c1cc(Br)cs1 [(S)-4-bromo-N-(3-bromo-4-(2-(3-fiuoropyrrolidin-1-yl)ethoxy)phenethyl)thiophene-2-carboxamide]
Ki (human H3 receptor [1]; [5]): 1100 nM
IC50 (human H3 receptor [2]; [6]): 2500 nM

CN(C)CCOc1ccc(CCNC(=O)c2cccn2C)cc1Br [N-(3-bromo-4-(2-(dimethylamino)ethoxy)phenethyl)-1-methyl-1H-pyrrole-2-carboxamide]
Ki (human H3 receptor [1]; [5]): 2100 nM
IC50 (human H3 receptor [2]; [6]): 4500 nM

CN(C)CCOc1ccc(CCNC(=O)c2ccc[nH]2)cc1Br [N-(3-bromo-4-(2-(dimethylamino)ethoxy)phenethyl)-1H-pyrrole-2-carboxamide]
Ki (human H3 receptor [1]; [5]): 1500 nM
IC50 (human H3 receptor [2]; [6]): 3400 nM

Cn1cccc1C(=O)NCCc1ccc(OCCN2CCCC2)c(Br)c1 [N-(3-bromo-4-(2-(pyrrolidin-1-yl)ethoxy)phenethyl)-1-methyl-1H-pyrrole-2-carboxamide]
Ki (human H3 receptor [1]; [5]): 130 nM
IC50 (human H3 receptor [2]; [6]): 390 nM

O=C(NCCc1ccc(OCCN2CCCC2)c(Br)c1)c1ccc[nH]1 [N-(3-bromo-4-(2-(pyrrolidin-1-yl)ethoxy)phenethyl)-1H-pyrrole-2-carboxamide]
Ki (human H3 receptor [1]; [5]): 150 nM
IC50 (human H3 receptor [2]; [6]): 380 nM

O=C(NCCc1ccc(OCCN2CCCC2)c(Br)c1)c1cccc(C(F)(F)F)c1 [N-(3-bromo-4-(2-(pyrrolidin-1-yl)ethoxy)phenethyl)-3-(trifluoromethyl)benzamide]
Ki (human H3 receptor [1]; [5]): 440 nM
IC50 (human H3 receptor [2]; [6]): 980 nM

O=C(NCCc1ccc(OCCN2CCCC2)c(Br)c1)c1cccc(Cl)c1 [N-(3-bromo-4-(2-(pyrrolidin-1-yl)ethoxy)phenethyl)-3-chlorobenzamide]
Ki (human H3 receptor [1]; [5]): 250 nM
IC50 (human H3 receptor [2]; [6]): 550 nM

O=C(NCCc1ccc(OCCN2CCCC2)c(Br)c1)c1nnc[nH]1 [N-(3-bromo-4-(2-(pyrrolidin-1-yl)ethoxy)phenethyl)-4H-1,2,4-triazole-3-carboxamide]
Ki (human H3 receptor [1]; [5]): 430 nM
IC50 (human H3 receptor [2]; [6]): 970 nM

O=C(NCCc1ccc(OCCN2CCCC2)c(Br)c1)c1cccc(C(F)(F)F)n1 [N-(3-bromo-4-(2-(pyrrolidin-1-yl)ethoxy)phenethyl)-6-(trifluoromethyl)picolinamide]
Ki (human H3 receptor [1]; [5]): 270 nM
IC50 (human H3 receptor [2]; [6]): 560 nM

O=C(NCCc1ccc(OCCN2CCCC2)c(Br)c1)c1cnco1 [N-(3-bromo-4-(2-(pyrrolidin-1-yl)ethoxy)phenethyl)oxazole-5-carboxamide]
Ki (human H3 receptor [1]; [5]): 37 nM
IC50 (human H3 receptor [2]; [6]): 83 nM

O=C(NCCc1ccc(OCCN2CCCC2)c(Br)c1)c1nccs1 [N-(3-bromo-4-(2-(pyrrolidin-1-yl)ethoxy)phenethyl)thiazole-2-carboxamide]
Ki (human H3 receptor [1]; [5]): 116 nM
IC50 (human H3 receptor [2]; [6]): 260 nM

CN(C)CCCOc1ccc(CCNC(=O)c2cccn2C)cc1Br [N-(3-bromo-4-(3-(dimethylamino)propoxy)phenethyl)-1-methyl-1H-pyrrole-2-carboxamide]
Ki (human H3 receptor [1]; [5]): 1700 nM
IC50 (human H3 receptor [2]; [6]): 3900 nM

CN(C)CCCOc1ccc(CCNC(=O)c2ccc[nH]2)cc1Br [N-(3-bromo-4-(3-(dimethylamino)propoxy)phenethyl)-1H-pyrrole-2-carboxamide]
Ki (human H3 receptor [1]; [5]): 1300 nM
IC50 (human H3 receptor [2]; [6]): 2900 nM

CN1CCCC(COc2ccc(CCNC(=O)c3cccn3C)cc2Br)C1 (stereo not shown) [N-(3-bromo-4-((1-methylpiperidin-3-yl)methoxy)phenethyl)-1-methyl-1H-pyrrole-2-carboxamide]
Ki (human H3 receptor [1]; [5]): 910 nM
IC50 (human H3 receptor [2]; [6]): 2100 nM

CN1CCCC(COc2ccc(CCNC(=O)c3ccc[nH]3)cc2Br)C1 (stereo not shown) [N-(3-bromo-4-((1-methylpiperidin-3-yl)methoxy)phenethyl)-1H-pyrrole-2-carboxamide]
Ki (human H3 receptor [1]; [5]): 1500 nM
IC50 (human H3 receptor [2]; [6]): 3600 nM

CN(C)CCCOc1ccc(CCNC(=O)c2cc(Br)c[nH]2)cc1Br [dispyrin, 4-bromo-N-(3-bromo-4-(3-(dimethylamino)propoxy)phenethyl)-1H-pyrrole-2-carboxamide]
Ki (human H3 receptor [1]; [5]): 1100 nM
Ki (human H3 receptor [1]; radioligand binding assay employing [3H](R)-α-methylhistamine, read-out: Ki, affinity for the human H3 receptor): 1040 nM
IC50 (human H3 receptor [2]; [6]): 2400 nM
IC50 (human H3 receptor [2]; read-out: IC50, human H3 antagonist): 2350 nM
IC50 (human H3 receptor [2]; text of b259, read-out: IC50, human H3 antagonist): 2350 nM
inhibition at 10 µM [3]: 50 to 60%
other modest activities (other GPCRs and ion channels) [4]: 50-60%

N-(3-bromo-4-(2-(pyrrolidin-1- yl)ethoxy)phenethyl)thiazole-5-carboxamide
Ki (human H3 receptor [1]; [5]): 32 nM
IC50 (human H3 receptor [2]; [6]): 72 nM
